{"source": "patent US20230416316A1", "about": "“ADP-RIBOSE BINDING PEPTIDES WITH ANTI-CANCER ACTIVITY AND USE THEREOF” (PearlsInMires Co., Ltd., priority 2021, published 2023)", "format_in_all_cases": "cell-based", "key": {"[1]": {"test_system": "H1975 cells", "assay": "Cell viability (MTT, photomicrographs) in H1975 cells", "conditions": "16 μM peptide, 24 hours", "protocol": "(§1) After culturing 3×10^3 H1975 cells in a 96-well plate for 24 hours under conditions of 37° C. and 5% CO2, the cells were either untreated or treated with the peptides of Examples 1 to 28 at a concentration of 16 μM, respectively. Then, the cells were cultured for 24 hours under conditions of 37° C. and 5% CO2, and 10 μl of 3-(4,5-dimethylthiazol-2-yl)-2,5-diphenyltetrazolium bromide reagent was added to each well, followed by reaction for 1 hour. After the reaction was completed, the reagent was removed, 200 μl of dimethyl sulfoxide was added to each well, and the absorbance was measured to confirm cell viability."}, "[2]": {"test_system": "H1975 cells", "assay": "ADP-ribose level by ELISA in H1975 cells", "conditions": "0.2-32 μM peptide, 24 hours", "protocol": "(§2) The peptides of Examples 1 to 28 of the present disclosure are designed to inhibit the action of poly ADP-ribose degradation enzyme. In Experimental Example 1, it was confirmed through cell experiments whether poly ADP-ribose was inhibited from being degraded by each of the peptides and accumulated in cancer cells.\n(§3) 5×10^5 H1975 cells were divided into a group not treated with the peptide of Example and a group treated with 0.2, 1, 2, 4, 8, 16, and 32 μM of the peptide of Example 2 (SEQ ID NO: 2), and cultured for 24 hours under conditions of 37° C. and 5% CO2 in RPMI-1640 medium supplemented with 10% FBS, 100 units/ml penicillin, and 100 μg/ml streptomycin. The medium of the cultured cells was removed, and the samples were treated with RIPA buffer and 1% SDS. The prepared supernatant was used for ELISA analysis to detect and analyze ADP-ribose."}, "[3]": {"test_system": "HCT116 cells", "assay": "Cell viability (MTT, photomicrographs) in HCT116 cells", "conditions": "16 μM peptide, 24 hours", "protocol": "as §1, with “HCT116” for “H1975”"}, "[4]": {"test_system": "HCT116 cells", "assay": "ADP-ribose level by ELISA in HCT116 cells", "conditions": "0.2-32 μM peptide, 24 hours", "protocol": "as §2\nas §3, with “5×10^5 HCT116” for “5×10^5 H1975”, “Example 6” for “Example 2”, “NO: 6),” for “NO: 2),”, “in McCoy's 5A” for “in RPMI-1640”"}, "[5]": {"test_system": "Caki-1 cells", "assay": "Cell viability (MTT, photomicrographs) in Caki-1 cells", "conditions": "16 μM peptide, 24 hours", "protocol": "as §1, with “Caki-1” for “H1975”"}, "[6]": {"test_system": "Caki-1 cells", "assay": "ADP-ribose level by ELISA in Caki-1 cells", "conditions": "0.2-32 μM peptide, 24 hours", "protocol": "as §2\nas §3, with “5×10^5 Caki-1” for “5×10^5 H1975”, “Example 7” for “Example 2”, “NO: 7),” for “NO: 2),”, “in McCoy's 5A” for “in RPMI-1640”"}, "[7]": {"test_system": "U-87MG cells", "assay": "Viability of U-87MG cells, bevacizumab alone or combined with peptides", "set-up": "dose or concentration left out as unconfirmed", "conditions": "bevacizumab alone, 24 hours", "protocol": "as §1, with “U-87MG” for “H1975”, “treated with 18 mM of bevacizumab alone” for “either untreated”, “in combination” for “treated”, “14” for “28”, “0.2, 1 or 8 μM.” for “16 μM, respectively.”"}, "[8]": {"test_system": "MDA-MB-231 cells", "assay": "ADP-ribose level by ELISA in MDA-MB-231 cells", "conditions": "0.2-32 μM peptide, 24 hours", "protocol": "as §2\n5×10^3 MDA-MB-231 cells were divided into a group not treated with the Example peptide and a group treated with 0.2, 1, 2, 4, 8, 16, and 32 μM of the peptide of Example 5 (SEQ ID NO: 5), and cultured for 24 hours under conditions of 37° C. and 5% CO2 in Leibovitz's L-15 medium supplemented with 10% FBS, 100 units/ml penicillin, and 100 μg/ml streptomycin. The medium of the cultured cells was removed, and the samples were treated with RIPA buffer and 1% SDS. The prepared supernatant was used for ELISA analysis to detect and analyze ADP-ribose."}, "[9]": {"test_system": "MDA-MB-231 cells", "assay": "Cell viability (MTT, photomicrographs) in MDA-MB-231 cells", "conditions": "16 μM peptide, 24 hours", "protocol": "as §1, with “culturing 3×10^3 MDA-MB-231 cells in” for “culturing 3×10^3 H1975 cells in”, “and 5% C02, the cells” for “and 5% CO2, the cells”"}, "[10]": {"test_system": "Hep G2 cells", "assay": "ADP-ribose level by ELISA in Hep G2 cells", "conditions": "0.2-32 μM peptide, 24 hours", "protocol": "as §2\nas §3, with “5×10^5 Hep G2” for “5×10^5 H1975”, “Example 4” for “Example 2”, “NO: 4),” for “NO: 2),”, “in EMEM” for “in RPMI-1640”"}, "[11]": {"test_system": "Hep G2 cells", "assay": "Cell viability (MTT, photomicrographs) in Hep G2 cells", "conditions": "16 μM peptide, 24 hours", "protocol": "2-4. Change in viability in Hep G2 cells according to treatment with ADP-ribose binding peptide After culturing 3×10^3 Hep G2 cells in a 96-well plate for 24 hours under conditions of 37° C. and 5% CO2, the cells were either untreated or treated with the peptides of Examples 1 to 28 at a concentration of 16 μM, respectively. Then, the cells were cultured for 24 hours under conditions of 37° C. and 5% CO2, and 10 μl of 3-(4,5-dimethylthiazol-2-yl)-2,5-diphenyltetrazolium bromide reagent was added to each well, followed by reaction for 1 hour. After the reaction was completed, the reagent was removed, 200 μl of dimethyl sulfoxide was added to each well, and the absorbance was measured to confirm cell viability."}, "[12]": {"test_system": "Aspc-1 cells", "assay": "ADP-ribose level by ELISA in Aspc-1 cells", "conditions": "0.2-32 μM peptide, 24 hours", "protocol": "as §2\nas §3, with “5×10^5 Aspc-1” for “5×10^5 H1975”, “Example 3” for “Example 2”, “NO: 3),” for “NO: 2),”"}, "[13]": {"test_system": "Aspc-1 cells", "assay": "Cell viability (MTT, photomicrographs) in Aspc-1 cells", "conditions": "16 μM peptide, 24 hours", "protocol": "as §1, with “Aspc-1” for “H1975”"}}, "data": [{"substance": "RRYTVQFTTMVQVNEETGNRRPVM (ADP-ribose binding peptide) [Example 9]", "values": [{"measurement": "cancer cell growth and survival", "setting": "[1]", "value": "inhibited from growing and killed"}, {"measurement": "amount of increase in ADP-ribose (fold change) compared to the control group", "setting": "[2]", "value": "significant increase in the amount of ADP-ribose in a concentration-dependent manner"}]}, {"substance": "FSYVIDENTMGQINRQTQRQRRVRR [Example 6]", "values": [{"measurement": "cancer cell growth and survival", "setting": "[3]", "value": "inhibited from growing and killed"}, {"measurement": "amount of increase in ADP-ribose (fold change) compared to the control group", "setting": "[4]", "value": "significant increase in the amount of ADP-ribose in a concentration-dependent manner"}]}, {"substance": "TAYEASVCDYLEQQVARGN (ADP-ribose binding peptide) [Example 14]", "values": [{"measurement": "cancer cell growth and survival", "setting": "[5]", "value": "inhibited from growing and killed"}, {"measurement": "amount of increase in ADP-ribose (fold change) compared to the control group", "setting": "[6]", "value": "significant increase in the amount of ADP-ribose in a concentration-dependent manner"}]}, {"substance": "APYIIDLQSMNQFRQDIGTLRPVRR (APYIIDLQSMNQFRQDTGTLRPVRR; ADP-ribose binding peptide) [Example 2]", "values": [{"measurement": "cancer cell growth and survival", "setting": "[1]", "value": "inhibited from growing and killed"}, {"measurement": "amount of increase in ADP-ribose (fold change) compared to the control group", "setting": "[2]", "value": "significant increase in the amount of ADP-ribose in a concentration-dependent manner"}]}, {"substance": "bevacizumab", "values": [{"measurement": "viable cancer cells", "setting": "[7]", "value": "about 49%"}]}, {"substance": "FCYLIYFNSMSQMNRQTRRRRRLRR (ADP-ribose binding peptide) [Example 5]", "values": [{"measurement": "amount of increase in ADP-ribose (fold change) compared to the control group", "setting": "[8]", "value": "significant increase in the amount of ADP-ribose in a concentration-dependent manner"}, {"measurement": "cancer cell growth and survival", "setting": "[9]", "value": "inhibited from growing and killed"}]}, {"substance": "GRYDVHLGERMRYAVYWDELASEVRR (ADP-ribose binding peptide) [Example 13]", "values": [{"measurement": "cancer cell growth and survival", "setting": "[3]", "value": "inhibited from growing and killed"}, {"measurement": "amount of increase in ADP-ribose (fold change) compared to the control group", "setting": "[4]", "value": "significant increase in the amount of ADP-ribose in a concentration-dependent manner"}]}, {"substance": "RVYTIDENSMQQINEDTGTARAIQR (RVYTIDFNSMQQINEDTGTARAIQR; ADP-ribose binding peptide) [Example 4]", "values": [{"measurement": "amount of increase in ADP-ribose (fold change) compared to the control group", "setting": "[10]", "value": "significant increase in the amount of ADP-ribose in a concentration-dependent manner"}, {"measurement": "cancer cell growth and survival", "setting": "[11]", "value": "inhibited from growing and killed"}]}, {"substance": "RHYTVNLNTYTATDTKGHSLSVQR (ADP-ribose binding peptide) [Example 12]", "values": [{"measurement": "amount of increase in ADP-ribose (fold change) compared to the control group", "setting": "[8]", "value": "significant increase in the amount of ADP-ribose in a concentration-dependent manner"}, {"measurement": "cancer cell growth and survival", "setting": "[9]", "value": "inhibited from growing and killed"}]}, {"substance": "WIWYWKNESGTWIQYGEEKDKRKN (ADP-ribose binding peptide) [Example 10]", "values": [{"measurement": "amount of increase in ADP-ribose (fold change) compared to the control group", "setting": "[12]", "value": "significant increase in the amount of ADP-ribose in a concentration-dependent manner"}, {"measurement": "cancer cell growth and survival", "setting": "[13]", "value": "inhibited from growing and killed"}]}, {"substance": "FLYVADLENMVQYRRNEHGRRRKIKR (ADP-ribose binding peptide) [Example 11]", "values": [{"measurement": "amount of increase in ADP-ribose (fold change) compared to the control group", "setting": "[10]", "value": "significant increase in the amount of ADP-ribose in a concentration-dependent manner"}, {"measurement": "cancer cell growth and survival", "setting": "[11]", "value": "inhibited from growing and killed"}]}, {"substance": "APYIIDLPSWTQFRQDIGTMRAVRR (APYIIDLPSWTQFRQDTGTMRAVRR; ADP-ribose binding peptide) [Example 3]", "values": [{"measurement": "amount of increase in ADP-ribose (fold change) compared to the control group", "setting": "[12]", "value": "significant increase in the amount of ADP-ribose in a concentration-dependent manner"}, {"measurement": "cancer cell growth and survival", "setting": "[13]", "value": "inhibited from growing and killed"}]}]}
